Data: the supplement of paper PMC10307832

Experiments:
Experiment in all cases: relative viability (nuclei count vs DMSO), 5 days (fraction); higher = more cells survive
201T = test system: 201T
How it was run: (§1)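 The day after seeding in 1536-well plates, lung cancer cell lines were treated by pin tool with a single drug, or with a fixed anchor-drug dose together with five library-drug doses (not always all listed) in √10 steps. After 5 days, a combined fix-and-stain solution (final 0.05% Triton X-100, 1% formaldehyde, 1 ug/ml Hoechst) was added. Nuclei counted on 4× images gave relative viability as treated counts over vehicle counts, reported as the median of duplicate plates.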

COR-L23 = test system: COR-L23
How it was run: as §1

EPLC-272H = test system: EPLC-272H
How it was run: as §1

H3255 = test system: H3255
How it was run: as §1

HCC-15 = test system: HCC-15
How it was run: as §1

LOU-NH91 = test system: LOU-NH91
How it was run: as §1

NCI-H1650 = test system: NCI-H1650
How it was run: as §1

NCI-H1734 = test system: NCI-H1734
How it was run: as §1

NCI-H1793 = test system: NCI-H1793
How it was run: as §1

NCI-H2023 = test system: NCI-H2023
How it was run: as §1

NCI-H2170 = test system: NCI-H2170
How it was run: as §1

## CC(=O)O[C@@]12CO[C@@H]1C[C@H](O)[C@@]1(C)C(=O)[C@H](O)C3=C(C)[C@@H](OC(=O)[C@H](O)[C@@H](NC(=O)OC(C)(C)C)c4ccccc4)C[C@@](O)([C@@H](OC(=O)c4ccccc4)[C@H]21)C3(C)C [Docetaxel] + O=C(CCCCCCC(=O)Nc1ccccc1)NO [Vorinostat] (partner 1 µM)
201T; first compound 0.0002 µM
  relative viability: 0.885
201T; first compound 0.000632 µM
  relative viability: 0.932
201T; first compound 0.002 µM
  relative viability: 0.516
201T; first compound 0.006325 µM
  relative viability: 0.478
201T; first compound 0.02 µM
  relative viability: 0.291
COR-L23; first compound 0.0002 µM
  relative viability: 0.492
COR-L23; first compound 0.000632 µM
  relative viability: 0.248
COR-L23; first compound 0.002 µM
  relative viability: 0.151
COR-L23; first compound 0.006325 µM
  relative viability: 0.154
COR-L23; first compound 0.02 µM
  relative viability: 0.0838
EPLC-272H; first compound 0.0002 µM
  relative viability: 0.532
EPLC-272H; first compound 0.000632 µM
  relative viability: 0.162
EPLC-272H; first compound 0.002 µM
  relative viability: 0.0568
EPLC-272H; first compound 0.006325 µM
  relative viability: 0.0865
EPLC-272H; first compound 0.02 µM
  relative viability: 0.0652
H3255; first compound 0.0002 µM
  relative viability: 0.785
H3255; first compound 0.000632 µM
  relative viability: 0.826
H3255; first compound 0.002 µM
  relative viability: 0.629
H3255; first compound 0.006325 µM
  relative viability: 0.345
H3255; first compound 0.02 µM
  relative viability: 0.346
HCC-15; first compound 0.0002 µM
  relative viability: 0.856
HCC-15; first compound 0.000632 µM
  relative viability: 0.574
HCC-15; first compound 0.006325 µM
  relative viability: 0.227
HCC-15; first compound 0.02 µM
  relative viability: 0.131
LOU-NH91; first compound 0.0002 µM
  relative viability: 0.873
LOU-NH91; first compound 0.000632 µM
  relative viability: 0.628
LOU-NH91; first compound 0.002 µM
  relative viability: 0.436
LOU-NH91; first compound 0.006325 µM
  relative viability: 0.397
LOU-NH91; first compound 0.02 µM
  relative viability: 0.347
NCI-H1650; first compound 0.0002 µM
  relative viability: 0.54
NCI-H1650; first compound 0.000632 µM
  relative viability: 0.499
NCI-H1650; first compound 0.002 µM
  relative viability: 0.226
NCI-H1650; first compound 0.006325 µM
  relative viability: 0.196
NCI-H1650; first compound 0.02 µM
  relative viability: 0.162
NCI-H1734; first compound 0.0002 µM
  relative viability: 0.618
NCI-H1734; first compound 0.000632 µM
  relative viability: 0.506
NCI-H1734; first compound 0.002 µM
  relative viability: 0.304
NCI-H1734; first compound 0.006325 µM
  relative viability: 0.328
NCI-H1734; first compound 0.02 µM
  relative viability: 0.207
NCI-H1793; first compound 0.0002 µM
  relative viability: 0.724
NCI-H1793; first compound 0.000632 µM
  relative viability: 0.479
NCI-H1793; first compound 0.002 µM
  relative viability: 0.199
NCI-H1793; first compound 0.006325 µM
  relative viability: 0.26
NCI-H1793; first compound 0.02 µM
  relative viability: 0.163
NCI-H2023; first compound 0.0002 µM
  relative viability: 0.466
NCI-H2023; first compound 0.002 µM
  relative viability: 0.101
NCI-H2023; first compound 0.006325 µM
  relative viability: 0.0951
NCI-H2023; first compound 0.02 µM
  relative viability: 0.0577
NCI-H2170; first compound 0.0002 µM
  relative viability: 0.787
NCI-H2170; first compound 0.000632 µM
  relative viability: 0.551
NCI-H2170; first compound 0.002 µM
  relative viability: 0.388
